Data set [1] relates to WSU-DLCL2 human diffuse large cell lymphoma. As to the kind of experiment: Inhibition of tumor growth in WSU-DLCL2 non-Hodgkin's-lymphoma model with PNT-100 and vincristine (Example 7). It is filed as in vivo, mice. An excerpt: A non-Hodgkin's-lymphoma model (NHL) was used. The WSU-DLCL2 (Wayne State University diffuse large cell lymphoma) model is a very robust model of chemoresistant aggressive human diffuse large cell lymphoma. It was obtained from Dr. Ramzi Mohammad and Dr. Al-Katib and colleagues at the Karmanos Cancer Institute at Wayne State University. (See Al-Katib, A M, et al., Clin. Cancer Res. 4, 1305-1314 (1998); Mohammad, R, et al., Clin. Cancer Res. 8, 1277-1283 (2002); Mohammad, R M, et al., Mol. Cancer. Ther., 4, 13-21 (2005); Mohammad, R M, et al., Clin. Cancer Res. 6, 4950-4956, (2000).) The study was designed to administer five daily doses of 5 mg/kg PNT-100 (SEQ ID NO: 1251), and in certain cohorts, combination therapy with vincristine.

The next data set has as its system Daudi xenografts. Briefly: Efficacy of liposomal PNT-100 and rituximab in Daudi xenografts (Example 11). It is filed as in vivo, mice. The conditions noted are these: doses and schedules of Table 5, FIGS. 7-9. The protocol:
Daudi cells are a model of Burkett's lymphoma. Xenografts with Daudi cells were generated in mice as described in the previous examples. Liposomal PNT-100 was formulated as in example 9 and has similar properties and a concentration of 2.4 mg PNT-100 per ml. The mice were divided into 10 groups and treated as in Table 5.
Tumor volume was caliper measured. Studies were concluded when control animal xenografts reached 2000 mm^3. […] FIG. 8 is a Kaplan-Meyer plot, showing the percent of mice whose tumors have not yet reached 2000 mm^3 each day.

The subject of the next data set is WSU-DLCL2 xenografts. Briefly: Efficacy of liposomal PNT-100 and rituximab in WSU-DLCL2 xenografts (Example 10). It is filed as in vivo, C.B-17 SCID mice. The conditions noted are these: rituximab 20 mg/kg days 2 and 5; liposomal PNT-100 daily for five days; i.v. The protocol: Xenografts with WSU-DLCL2 cells were generated in C.B-17 SCID mice between 4-6 weeks old as described in the previous examples. […] Human pharmaceutical grade rituximab (Biogen Idec-Genentech) was provided by Karmanos Cancer Institute. The mice were treated as in Table 4. [table] Animals were checked three times weekly for tumor growth by caliper measurements. An approximate tumor volume was calculated using the formula ½(a×b^2), where b is the smaller of two perpendicular diameters. Animals were sacrificed when individual animal tumor burden reached 2000 mm^3 or when the study was concluded 81 days post tumor trocar.

For “PNT-100: PNT-100 oligonucleotide not methylated, bcl-2 oligonucleotide, SEQ ID NO:1251 (DNA CACGCACGCGCATCCCCGCCCGTG; sugars by position and backbone not given here; liposomal formulation)”, in data set [1] (5 mg/kg PNT-100, alone or with vincristine), the “growth of tumors in mice” value is on record as “decreases the growth tumors”. Moreover, the “weight loss in the animals” value in data set [1] (after one dose, 5 mg/kg planned daily doses) is reported as “noticeable weight loss”. Further, the “effect on tumor volume / time to 2000 mm^3” value with Daudi xenografts is listed as “little effect”.

Take “Rituximab: human pharmaceutical grade rituximab (Biogen Idec-Genentech), antibody directed against CD20”: in the data set on WSU-DLCL2 xenografts, the “complete regression of the tumor (shrinkage below measurable size for three consecutive time points), number of tumors” value is given as “seven out of eight” and the “complete regression through the 81 day endpoint, number of tumors” value is “four out of eight”. Further, the “effect on tumor volume / time to 2000 mm^3” value in the data set with Daudi xenografts is reported as “little effect”.

The record behind these values is patent US8822646B2, “Cancer therapies and pharmaceutical compositions used therein” (ProNAi Therapeutics, Inc., priority 2005, dated 2014).
